Measurements reported in patent US8802597B2, “Herbicidal pyrimidines” (E I du Pont de Nemours and Company, priority 2003, dated 2014).

Legend:
[1] = tested on: Canada thistle (Cirsium arvense); assay: Test L field study, Compound 1 and nicosulfuron; type: in vivo; settings: Nicosulfuron 18 g a.i./ha, approximately 56 days after treatment
Text: (§1) This field study included treatments that consisted of Compound 1 and nicosulfuron alone and in combination on Canada thistle (Cirsium arvense) and daisy fleabane (Erigeron spp.). The plants ranged from 20 to 30 cm in height at the time of application during the month of May in the vicinity of Newark, Del. Compound 1 was formulated as a wettable powder containing 25% active ingredient by weight. Nicosulfuron was in the form of Accent® Herbicide, a water-dispersible granule formulation containing 75% active ingredient by weight. The formulations were dispersed in water in the sprayer tank before treatment. The treatments were made using a backpack sprayer calibrated to deliver 24 gallons per acre (224 L per hectare) to a 10 ft×30 ft (3 m×9 m) plot. Each treatment was replicated two times. The effects on the plants approximately 56 days after treatment were visually compared to untreated controls. Plant response ratings were calculated as the means of the two replicates, based on a scale of 0 to 100 where 0 is no effect and 100 is complete control. Colby's Equation was used to determine the herbicidal effects expected from the mixture.

[2] = tested on: daisy fleabane (Erigeron spp.); assay: Test L field study, Compound 1 and nicosulfuron; type: in vivo; settings: Nicosulfuron 18 g a.i./ha, approximately 56 days after treatment
Text: as §1

`COc1cc(OC)nc(NC(=O)NS(=O)(=O)c2ncccc2C(=O)N(C)C)n1` [Nicosulfuron, nicosulfuron, reference compound] was tested, and the “Obsd. observed effect (0 to 100 scale)” value [1] was 15 and the “Obsd. observed effect (0 to 100 scale)” value [2] was 28.
